Where two headings read alike, the source gives them in different places.

The target of one data set is hAChE (Homo sapiens, UniProt P22303). Put plainly: biochemical. Format: biochemical. The method, then:
(§1) For time-dependency measurements, the pre-incubation time was varied (1 min, 5 min, 15 min, 30 min or 60 min). The reactions were started by the addition of the substrate (final concentration, 500 μM butyrylthiocholine iodide or acetylthiocholine iodide for hBChE and hAChE, respectively). The final content of DMSO was always 1%. […] The initial velocities in the presence (vi) and absence (vo) of the test compounds were calculated. The inhibitory potencies were expressed as the residual activities, according to RA=(vi−b)/(vo−b), where b is the blank value using phosphate buffer without ChEs. For IC50 determinations, at least seven different concentrations for each compound were used. The IC50 values were obtained by plotting the residual ChE activities against the applied inhibitor concentrations, with the experimental data fitted to a four-parameter logistic function (GraphPad Prism 9.4). Tacrine and donepezil were used as positive controls.

Another data set deals with hBChE (Homo sapiens, UniProt P06276). Put plainly: Inhibition of cholinesterases, method of Ellman (hBChE). Format: biochemical. Particulars: for hBChE time-dependency observed: yes/no: pre-incubation time varied (1, 5, 15, 30 or 60 min); for hBChE RA-residual activity: mean ± standard deviation, test concentration not given. Here is the method: as §1
For data set [1], the target named is T1, human α2A adrenoreceptor from CHO cells (Homo sapiens, UniProt P08913).
T1 construct: host or cells: CHO cells
T1 sequence (P08913 1-465): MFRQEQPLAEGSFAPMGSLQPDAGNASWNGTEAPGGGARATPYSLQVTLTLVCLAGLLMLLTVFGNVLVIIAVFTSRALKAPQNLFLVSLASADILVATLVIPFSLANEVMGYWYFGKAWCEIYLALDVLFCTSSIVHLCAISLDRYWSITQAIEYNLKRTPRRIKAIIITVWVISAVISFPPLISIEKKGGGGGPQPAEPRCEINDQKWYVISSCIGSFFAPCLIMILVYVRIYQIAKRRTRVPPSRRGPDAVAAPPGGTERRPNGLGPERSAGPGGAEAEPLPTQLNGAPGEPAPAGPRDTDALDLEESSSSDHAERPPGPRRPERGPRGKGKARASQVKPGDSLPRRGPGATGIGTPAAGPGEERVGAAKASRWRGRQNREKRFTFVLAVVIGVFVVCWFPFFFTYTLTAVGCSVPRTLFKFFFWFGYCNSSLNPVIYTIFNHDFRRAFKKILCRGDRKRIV
Put plainly: α2A binding assay (Eurofins), antagonist radioligand [3H]RX821002.
Method: In each experiment the respective reference compound (yohimbine) was tested concurrently with the test compounds, and the data were compared with historical values determined at Eurofins. The experiment was accepted in accordance with Eurofins validation Standard Operating Procedure. Inhibition above 50% is considered to represent significant effects of the test compounds. The inhibition constants (Ki) were calculated using the Cheng-Prusoff equation.

Data set [2] in a line: Hydrolysis in plasma (LC-MS). Format: in vitro ADME, human. The method, then: Samples were analysed by LC-MS system, which included Thermo Scientific UltiMate 3000 UHPLC liquid chromatograph and Thermo Scientific Exactive Plus Hybrid Quadrupole-Orbitrap mass spectrometer. The general method used a Waters Acquity UPLC® BEH C18 column (2.1×50 mm, 1.7 μm) and Waters Vanguard UPLC® BEH C18 precolumn (2.1×5 mm, 1.7 μm), thermostated at 40° C., with: injection volume, 1 μL; flow rate, 0.4 mL/min; autosampler temperature: 15° C., detector Full MS-SIM (runtime 1.5-3 min, positive mode, resolution: 70 000; AGC target: 3e^6; maximum IT: 200 ms; scan range: 200-300 m/z); mobile phase A: 0.1% formic acid in MQ water; B: 0.1% formic acid in acetonitrile. Gradient: 0-3 min, 20-75% B; 3-3.1 min 75-95% B; 3.1-4 min 95% B; 4-4.1 min 95-20% B; 4.1-6 min 20% B. Processing: ICIS peak detection algorithm, analyte 6—expected retention time: 1.87 min, 30 s window, mass range 213.14; analyte 7—expected retention time: 2.40 min, 30 s window, mass range 284.18.
To construct the calibration curves, the highest concentration (800 nM) stock solution was prepared in plasma, and serially diluted with plasma to different compound concentrations (8, 20, 40, 60, 80, 200, 400, 600, 800 nM). 50 μL of the respective biological sample were diluted with 200 μL MeOH, vortexed, centrifuged at 4° C. and 5000 rpm for 10 min, the supernatant transferred to HPLC vials with inserts, and analysed. 5 replicates were injected to check the precision, and to ascertain the matrix effects in plasma, 0.5 μL of […] 6 was diluted with 49.5 μL of either plasma or MQ water. […] To monitor the progress of 7 hydrolysis in plasma, 1 vol. % of 7.5 μM 7 stock solution was mixed with plasma, 50 μL aliquots were drawn successively after 1, 5, and 60 min and analysed as described above. In a control experiment, the plasma used was pretreated for 5 min with 1 mM ethopropazine to inhibit BChE, then 7 was added, and the above procedure followed.
(§2) As both 7 and BChE were being depleted, near the final timepoint the reaction rate slowed down considerably. […] 7 is readily hydrolysed in contact with plasma BChE—therefore, after an in vivo application (either parenteral or per os), adrenergic-active moiety 6 should be liberated in the bloodstream, permeate the blood-brain barrier, and reach the site of action in the central nervous system.

Data set [3] can be described thus: Non-enzymatic hydrolysis (aqueous stability). Format: physicochemical. Particulars: compared with hydrolysis in plasma. The method, then: Reactions were monitored using analytical thin-layer chromatography (TLC) on silica gel 60 F254 Al plates. Developed plates were inspected under UV light and, if necessary, visualized with ninhydrin, vanillin/sulfuric acid, Dragendorff's or potassium permanganate stains. Melting points were determined with Büchi 535 Melting Point Apparatus (uncorrected). Nuclear magnetic resonance spectra were recorded on a Bruker Avance III 400 MHz spectrometer at 400 MHz for ^1H, 100 MHz for ^13C, and 376 MHz for ^19F nucleus, respectively, using CDCl3 with TMS as the internal standard as solvent. […] Mass spectra were recorded on Thermo Scientific Q Executive Plus LC-MS/MS spectrometer and IR spectra on Thermo Nicolet FT-IR spectrophotometer. […] The purities of the tested compounds were established to be ≥95%, as determined by UPLC.
as §2

The mark [4] stands for this setting: 5 min preincubation, read-out: hBChE IC50 ± SEM.
Where [5] appears, read: pre-incubation time varied (1, 5, 15, 30 or 60 min).
The mark [6] stands for this setting: control plasma with 1 mM ethopropazine, nominal 75 nM 7, timepoint 60 min.
[7] abbreviates: hydrolysis of 7 in human plasma, nominal 75 nM, timepoint 1 min.
Where [8] appears, read: hydrolysis of 7 in human plasma, nominal 75 nM, timepoint 5 min.
The mark [9] stands for this setting: hydrolysis of 7 in human plasma, nominal 75 nM, timepoint 60 min.

Sequence of hBChE (P06276 29-602): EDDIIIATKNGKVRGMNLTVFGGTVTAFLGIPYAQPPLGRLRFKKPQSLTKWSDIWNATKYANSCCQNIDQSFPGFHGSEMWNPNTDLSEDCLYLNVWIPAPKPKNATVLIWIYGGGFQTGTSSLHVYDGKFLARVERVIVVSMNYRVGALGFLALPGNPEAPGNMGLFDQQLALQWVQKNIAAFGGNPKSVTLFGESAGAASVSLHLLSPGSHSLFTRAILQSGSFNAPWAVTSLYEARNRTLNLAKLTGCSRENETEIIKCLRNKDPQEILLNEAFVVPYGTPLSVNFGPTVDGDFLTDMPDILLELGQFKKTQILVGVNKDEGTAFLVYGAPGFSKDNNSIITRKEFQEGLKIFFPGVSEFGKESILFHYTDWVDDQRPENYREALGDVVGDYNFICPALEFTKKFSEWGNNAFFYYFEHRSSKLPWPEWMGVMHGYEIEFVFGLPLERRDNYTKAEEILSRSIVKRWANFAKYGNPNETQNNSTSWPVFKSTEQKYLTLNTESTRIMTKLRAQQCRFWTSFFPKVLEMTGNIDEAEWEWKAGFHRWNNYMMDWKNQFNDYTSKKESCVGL
Sequence of hAChE (P22303 32-614): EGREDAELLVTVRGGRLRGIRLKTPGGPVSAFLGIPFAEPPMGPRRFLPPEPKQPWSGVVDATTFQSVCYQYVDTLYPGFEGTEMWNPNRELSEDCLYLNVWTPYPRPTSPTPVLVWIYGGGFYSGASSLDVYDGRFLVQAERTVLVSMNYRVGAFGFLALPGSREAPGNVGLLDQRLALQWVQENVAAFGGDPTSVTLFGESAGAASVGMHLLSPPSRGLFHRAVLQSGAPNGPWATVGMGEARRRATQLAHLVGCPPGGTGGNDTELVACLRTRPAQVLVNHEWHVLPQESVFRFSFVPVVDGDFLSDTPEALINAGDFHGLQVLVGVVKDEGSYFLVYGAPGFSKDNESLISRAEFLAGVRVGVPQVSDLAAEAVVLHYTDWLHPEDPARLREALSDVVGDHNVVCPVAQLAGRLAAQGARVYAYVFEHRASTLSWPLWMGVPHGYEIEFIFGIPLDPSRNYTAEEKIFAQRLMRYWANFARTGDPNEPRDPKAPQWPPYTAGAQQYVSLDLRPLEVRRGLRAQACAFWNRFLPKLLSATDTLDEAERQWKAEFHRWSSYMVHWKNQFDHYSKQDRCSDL

On to `CCC1(c2cnn(C(=O)N(C)C)n2)Cc2ccccc2C1` [Compound 14, 4-(2-Ethylindan-2-yl)-N,N-dimethyl-2H-1,2,3-triazole-2-carboxamide], for which the “hAChE time-dependency observed: yes/no” value on hAChE was found to be 180.9 ± 35.5 yes. Besides, the 50% inhibitory concentration (IC50) on hAChE (read-out: hAChE IC50 ± SEM) stood at 181 ± 35.5 nM; on hBChE (setting [4]), 2.39 ± 0.63 nM. Further, the “hBChE time-dependency observed: yes/no” value at hBChE is recorded as “yes”.
For `CCC1(c2cn[nH]n2)Cc2ccccc2C1` [Compound 13, 4-(2-Ethylindan-2-yl)-2H-1,2,3-triazole], at hAChE, the “hAChE IC50 ± SEM” value is listed as “Not active (87.3 ± 7.5%)” and the “hAChE RA-residual activity” value is “Not active (87.3 ± 7.5%)”. Besides, the inhibition at 1 µM in data set [1] amounted to 6.1%. On hBChE (5 min preincubation), the “hBChE IC50 ± SEM” value is given as “Not active” and the “hBChE RA-residual activity” value is recorded as 60.3 ± 1.0%.
Turning to `[2H]C([2H])([2H])C([2H])([2H])C1(c2cn(C(=O)N(CC)CC)cn2)Cc2ccccc2C1` [Compound 21, N,N-diethyl-4-(2-(ethyl-d5)indan-2-yl)-1H-imidazole-1-carboxamide], the “hAChE RA-residual activity” value on hAChE (5 min preincubation, mean ± standard deviation, test concentration not given) stood at 58.9 ± 2.3%. Moreover, the “hAChE time-dependency observed: yes/no” value at hAChE (setting [5]) is reported as “yes”. In addition, the IC50 on hBChE (setting [4]) turned out to be 7830 ± 1320 nM. Further, the “hBChE time-dependency observed: yes/no” value on hBChE is reported as “yes”.
`CCC1(c2cn(C(=O)N(C)Cc3ccccc3)cn2)Cc2ccccc2C1` [Compound 17, N-benzyl-4-(2-ethylindan-2-yl)-N-methyl-1H-imidazole-1-carboxamide]: on hAChE, the “hAChE RA-residual activity” value came to 46.4 ± 3.3% yes. In addition, on hBChE (setting [4]), the 50% inhibitory concentration (IC50) is 95.7 ± 17.1 nM. Moreover, on hBChE, the “hBChE time-dependency observed: yes/no” value was “yes”.
On to `CCC1(c2cnc[nH]2)Cc2ccccc2C1` [Compound 6, 4-(2-ethylindan-2-yl)-1H-imidazole], for which the concentration of analyte in data set [2] (setting [6]) amounted to 9.816 nM; in data set [2] (setting [7]), 15.911 nM; in data set [2] (setting [8]) it was 29.071 nM; in data set [2] (setting [9]), 65.375 nM.
With `CCC1(c2nc[nH]n2)Cc2ccccc2C1` [Compound 15, 3-(2-Ethylindan-2-yl)-1H-1,2,4-triazole], on hAChE, the “hAChE IC50 ± SEM” value is “Not active (79.8 ± 7.0%)” and the “hAChE RA-residual activity” value is listed as “Not active (79.8 ± 7.0%)”. In data set [1], the inhibition at 1 µM turned out to be 2.1%. Also, at hBChE (5 min preincubation), the “hBChE IC50 ± SEM” value is given as “Not active” and the “hBChE RA-residual activity” value is given as 95.9 ± 6.8%.
In turn, `CCC1(c2cn(C(=O)N(C)C)c[n+]2C)Cc2ccccc2C1` [Compound 9, 1-(Dimethylcarbamoyl)-4-(2-ethylindan-2-yl)-3-methyl-1H-imidazol-3-ium trifluoromethanesulfonate] came in with an IC50 at hAChE of 431 ± 113 nM. In addition, the “hAChE time-dependency observed: yes/no” value on hAChE (setting [5]) is “yes”. Also, on hBChE, 4.18 ± 0.77 nM corresponded to half-maximal inhibition (IC50) and the “hBChE time-dependency observed: yes/no” value is recorded as “yes”.
With `CCC1(c2cn(C(=O)N(C)C)cn2)Cc2ccccc2C1` [Compound 7, 4-(2-Ethylindan-2-yl)-N,N-dimethyl-1H-imidazole-1-carboxamide], the non-enzymatic hydrolysis rate entry in data set [3] is “several orders of magnitude slower”. Besides, the “hAChE time-dependency observed: yes/no” value at hAChE is on record as 30507 ± 6304 yes. Further, the figures for the concentration for half-maximal inhibition (IC50) on hAChE (read-out: hAChE IC50 ± SEM) and at hBChE (setting [4]) were 30500 ± 6300 nM and 12.6 ± 2 nM, respectively. In data set [1], this molecule returned an inhibition at 1 µM of 6%. Also, the concentration of analyte is 74.477 nM in data set [2] (control plasma with 1 mM ethopropazine, nominal 75 nM 7, timepoint 1 min); 72.158 nM in data set [2] (control plasma with 1 mM ethopropazine, nominal 75 nM 7, timepoint 5 min); 71.131 nM in data set [2] (setting [6]); 66.508 nM in data set [2] (setting [7]); 55.665 nM in data set [2] (setting [8]); 22.431 nM in data set [2] (setting [9]). Moreover, the “hBChE time-dependency observed: yes/no” value at hBChE is reported as “yes”.
On to `CCN(CC)C(=O)n1cnc(C2(CC)Cc3ccccc3C2)c1` [Compound 8, N,N-diethyl-4-(2-ethylindan-2-yl)-1H-imidazole-1-carboxamide], for which, at hAChE, the “hAChE IC50 ± SEM” value is on record as “Not active (66.8 ± 4.7%) no” and the “hAChE RA-residual activity” value is on record as “Not active (66.8 ± 4.7%) no”. In addition, the half-maximal inhibitory concentration (IC50) on hBChE (setting [4]) is 1460 ± 218 nM. For the same molecule, the “hBChE time-dependency observed: yes/no” value at hBChE is given as “yes”.
As to `CCC1(c2cn(C(=O)N3CCCCC3)cn2)Cc2ccccc2C1` [Compound 18, (4-(2-ethylindan-2-yl)-1H-imidazol-1-yl)(piperidin-1-yl)methanone], the 50% inhibitory concentration (IC50) came out at 5180 ± 1620 nM on hAChE (read-out: hAChE IC50 ± SEM) and 4.8 ± 0.944 nM on hBChE (setting [4]). Besides, the “hBChE time-dependency observed: yes/no” value on hBChE is given as “yes”.
Turning to `CCC1(c2ncn(C(=O)N(C)C)n2)Cc2ccccc2C1` [Compound 16, 3-(2-Ethylindan-2-yl)-N,N-dimethyl-1H-1,2,4-triazole-1-carboxamide], the concentration for half-maximal inhibition (IC50) at hAChE (read-out: hAChE IC50 ± SEM) worked out at 1980 ± 239 nM; at hBChE (setting [4]), 4.12 ± 0.35 nM. Besides, the “hBChE time-dependency observed: yes/no” value on hBChE is “yes”.

The values are drawn from patent publication US20260183273A1, “N,N-dialkyl-4-(2-ethylindan-2-yl)-1H-imidazole-1-carboxamides and related compounds for treatment of neurodegenerative diseases” (priority 2023, published 2026).
